US20110065756A1, “METHODS AND COMPOSITIONS FOR TREATMENT OF OBESITY-RELATED DISEASES” (priority 2009, published 2011)

Columns and labels:
[1] = clinical use; cited from earlier work
[2] = Rosiglitazone treatment of diet-induced obese mice: body weight, fasting plasma glucose and insulin, IPGTT; assay type: in vivo; settings: obese C57BL/6J mice, 10 mg/kg/day by gavage, vs vehicle
Method: Ten adult (6 week-old) male C57BL/6J mice were purchased from the Jackson Laboratory. Mice were housed in a pathogen-free barrier facility (12 h light/12 h dark cycle). […] Mice were weighed every 4 weeks. After 12 weeks blood was collected after a 6 hour fast and plasma glucose levels were analyzed using the Accu-Check glucose meter. Subsequently, mice were treated with rosiglitazone (10 mg/kg/day in 1% carboxymethylcellulose in water) or vehicle by gavaging for 10 days. On day 10 the animals were subjected to an intraperitoneal glucose tolerance test (IPGTT) after a 16 hr overnight fast. Plasma glucose levels were determined at 0, 15, 30, 60 and 120 min using an Accu-Check glucose meter; at each time point 10 μl blood was collected in EDTA-coated tubes (Microvette CB300, Sarstedt, Newton, N.C.) for determination of insulin levels using an ELISA specific for mouse insulin (Alpco Diagnostics, Salem, N.H.). After the IPGTT, mice received a final treatment with rosiglitazone or vehicle (day 11) and were euthanized the next day (day 12) after a 6 hour fast under anaesthesia with isoflurane (Baxter). The epididymal fat pads, subcutaneous fat pads, liver and kidneys were harvested and stored at −80° C. for further analysis.
Results are expressed as mean±SEM. […]

[3] = RECORD, cited from earlier work

SMILES	incidence of hepatitis and potential liver failure [1]	body weight [2]	cardiovascular death, myocardial infarction, or stroke ([3]; 5-7 years follow-up, vs active control group)	upper and distal lower limb fracture rates ([3]; particularly in women)	heart failure that caused either hospital admission or death ([3]; rosiglitazone group (29 in active control group)) [patients]	risk difference per 1000 person-years for heart failure ([3]; vs active control, interval 1.1-4.1)	hazard ratio [HR] for heart failure ([3]; vs active control, interval 1.35-3.27)
CCc1ccc(CCOc2ccc(CC3SC(=O)NC3=O)cc2)nc1 (centres unmarked) [pioglitazone]	have not shown higher incidence	–	–	–	–	–	–
CN(CCOc1ccc(CC2SC(=O)NC2=O)cc1)c1ccccn1 (centres unmarked) [rosiglitazone]	have not shown higher incidence	did not influence weight	No difference was observed	increased	61	2.6	2.10
